Reference: patent publication US7709486B2, “CXCR4 antagonists” (Genzyme Corporation, priority 1998, dated 2010)

System: collagen-induced arthritis (CIA)
Method: The experiments were performed in 8- to 12-week old mice, but in each experiment, the mutant and wild-type mice were age-matched with a 5 day limit. The male to female ratio was kept between 0.8 and 1.3 in each experimental group.
Native chicken collagen type II (EPC, Owensvillle, Mo.) was dissolved in 0.05 M acetic acid at 2 mg/ml by stirring overnight at 6° C., and emulsified in an equal volume of incomplete (IFA) or complete Freund's adjuvant (CFA) containing 1.5 mg/ml heat killed Mycobacterium butyricum (Difco, Detroit, Mich.). Mice were sensitized with a single 100 μl intradermal injection of the emulsion at the base of the tail. Mice were examined daily for signs of arthritis. The disease severity was recorded following a scoring system for each limb. Score 0: normal; score 1: redness and/or swelling in one joint; score 2: redness and/or swelling in more than one joint; score 3: redness and/or welling in the entire paw; score 4: deformity and/or ankylosis.
Spleens and fore and hind limbs were fixed in buffered saline—B5fixative (10% formalin with quicksilver). […] Limbs were subsequently decalcified overnight with formic acid. […] Severity of arthritis was evaluated using three parameters: infiltration of mono- and polymorphonuclear cells, hyperplasia of the synovium and parmus formation. Each parameter was scored on a scale from 0 to 3 (absent; weak, moderate and severe).

c1cc(CN2CCCNCCNCCCNCC2)ccc1CN1CCCNCCNCCCNCC1 [AMD3100, 1,1′-[1,4-phenylenebis(methylene)]bis-1,4,8,11-tetraazacyclotetradecane]
Body weight loss compared with control animals (collagen-injected mice, treated): did not demonstrate any significant body weight loss | Time until the single affected treated animal developed arthritic pathology (post-treatment): > 20 days
